Values after ≈ are worked out from the molar mass of the structure shown. Numbered stars: 1 amine (or outer) side, 2 acyl side, 3 side chain; on linkers, the order of the positions; unused ones are H or OH. Bridge positions count the residues as written; N and C are the ends. Square brackets hold non-standard residues; d marks the D form. Peptide text beside a SMILES is read from it. * marks the point of attachment. hTyr(3S-OH,4S-OH,3'-OSO3H) = N[C@H](C(=O)O)[C@H](O)[C@@H](O)c1ccc(O)c(OS(=O)(=O)O)c1; pTerphenylCO(4''-OnC5H11) = CCCCCOc1ccc(-c2ccc(-c3ccc(C(=O)*)cc3)cc2)cc1; Orn(4R-OH,5R-OH) = O=C([C@H](C[C@@H](O)[C@@H](O)N[*:3])N[*:1])[*:2]; hTyr(3S-OH,4S-OH) = N[C@H](C(=O)O)[C@H](O)[C@@H](O)c1ccc(O)cc1; Pro(3S-OH,4S-Me) = C[C@H]1CN[C@H](C(=O)O)[C@H]1O; X1 = CCCCCOc1ccc(-c2cc(-c3ccc(C(=O)*)cc3)no2)cc1; Gln(3R-OH) = NC(=O)C[C@@H](O)[C@H](N)C(=O)O; Hyp = O=C(O)[C@@H]1C[C@@H](O)CN1
Columns and labels:
[1] = Inhibition of 1,3-beta-D-glucan synthase EMFR-S678P/WT mutant from Aspergillus fumigatus assessed as incorporation of [3H]glucose
Aspergillus fumigatus [2] = test: Antifungal activity against Aspergillus fumigatus expressing fks1 gene EMFR-S678P/WT mutant after 24 to 48 hrs by broth dilution susceptibility test; type: functional; settings: read-out: MEC
[3] = Inhibition of wild-type 1,3-beta-D-glucan synthase KU80delta from Aspergillus fumigatus assessed as incorporation of [3H]glucose
Fksp = Fksp (Neosartorya fumigata (Aspergillus fumigatus), UniProt P87204, S678P); test: Inhibition of 1,3-beta-D-glucan synthase EMFR-S678P mutant from Aspergillus fumigatus assessed as incorporation of [3H]glucose
Aspergillus fumigatus [4] = test: Antifungal activity against Aspergillus fumigatus expressing fks1 gene EMFR-S678P mutant after 24 to 48 hrs by broth dilution susceptibility test; type: functional; settings: read-out: MEC
Aspergillus fumigatus [5] = test: Antifungal activity against Aspergillus fumigatus expressing wild-type fks1 gene KU80delta after 24 to 48 hrs by broth dilution susceptibility test; type: functional; settings: read-out: MEC
Aspergillus fumigatus [6] = test: Ratio of IC50 for Aspergillus fumigatus 1,3-beta-D-glucan synthase EMFR-S678P mutant to IC50 for Aspergillus fumigatus wild-type 1,3-beta-D-glucan synthase KU80delta

Chain of Fksp (P87204 entry or part of it S678P): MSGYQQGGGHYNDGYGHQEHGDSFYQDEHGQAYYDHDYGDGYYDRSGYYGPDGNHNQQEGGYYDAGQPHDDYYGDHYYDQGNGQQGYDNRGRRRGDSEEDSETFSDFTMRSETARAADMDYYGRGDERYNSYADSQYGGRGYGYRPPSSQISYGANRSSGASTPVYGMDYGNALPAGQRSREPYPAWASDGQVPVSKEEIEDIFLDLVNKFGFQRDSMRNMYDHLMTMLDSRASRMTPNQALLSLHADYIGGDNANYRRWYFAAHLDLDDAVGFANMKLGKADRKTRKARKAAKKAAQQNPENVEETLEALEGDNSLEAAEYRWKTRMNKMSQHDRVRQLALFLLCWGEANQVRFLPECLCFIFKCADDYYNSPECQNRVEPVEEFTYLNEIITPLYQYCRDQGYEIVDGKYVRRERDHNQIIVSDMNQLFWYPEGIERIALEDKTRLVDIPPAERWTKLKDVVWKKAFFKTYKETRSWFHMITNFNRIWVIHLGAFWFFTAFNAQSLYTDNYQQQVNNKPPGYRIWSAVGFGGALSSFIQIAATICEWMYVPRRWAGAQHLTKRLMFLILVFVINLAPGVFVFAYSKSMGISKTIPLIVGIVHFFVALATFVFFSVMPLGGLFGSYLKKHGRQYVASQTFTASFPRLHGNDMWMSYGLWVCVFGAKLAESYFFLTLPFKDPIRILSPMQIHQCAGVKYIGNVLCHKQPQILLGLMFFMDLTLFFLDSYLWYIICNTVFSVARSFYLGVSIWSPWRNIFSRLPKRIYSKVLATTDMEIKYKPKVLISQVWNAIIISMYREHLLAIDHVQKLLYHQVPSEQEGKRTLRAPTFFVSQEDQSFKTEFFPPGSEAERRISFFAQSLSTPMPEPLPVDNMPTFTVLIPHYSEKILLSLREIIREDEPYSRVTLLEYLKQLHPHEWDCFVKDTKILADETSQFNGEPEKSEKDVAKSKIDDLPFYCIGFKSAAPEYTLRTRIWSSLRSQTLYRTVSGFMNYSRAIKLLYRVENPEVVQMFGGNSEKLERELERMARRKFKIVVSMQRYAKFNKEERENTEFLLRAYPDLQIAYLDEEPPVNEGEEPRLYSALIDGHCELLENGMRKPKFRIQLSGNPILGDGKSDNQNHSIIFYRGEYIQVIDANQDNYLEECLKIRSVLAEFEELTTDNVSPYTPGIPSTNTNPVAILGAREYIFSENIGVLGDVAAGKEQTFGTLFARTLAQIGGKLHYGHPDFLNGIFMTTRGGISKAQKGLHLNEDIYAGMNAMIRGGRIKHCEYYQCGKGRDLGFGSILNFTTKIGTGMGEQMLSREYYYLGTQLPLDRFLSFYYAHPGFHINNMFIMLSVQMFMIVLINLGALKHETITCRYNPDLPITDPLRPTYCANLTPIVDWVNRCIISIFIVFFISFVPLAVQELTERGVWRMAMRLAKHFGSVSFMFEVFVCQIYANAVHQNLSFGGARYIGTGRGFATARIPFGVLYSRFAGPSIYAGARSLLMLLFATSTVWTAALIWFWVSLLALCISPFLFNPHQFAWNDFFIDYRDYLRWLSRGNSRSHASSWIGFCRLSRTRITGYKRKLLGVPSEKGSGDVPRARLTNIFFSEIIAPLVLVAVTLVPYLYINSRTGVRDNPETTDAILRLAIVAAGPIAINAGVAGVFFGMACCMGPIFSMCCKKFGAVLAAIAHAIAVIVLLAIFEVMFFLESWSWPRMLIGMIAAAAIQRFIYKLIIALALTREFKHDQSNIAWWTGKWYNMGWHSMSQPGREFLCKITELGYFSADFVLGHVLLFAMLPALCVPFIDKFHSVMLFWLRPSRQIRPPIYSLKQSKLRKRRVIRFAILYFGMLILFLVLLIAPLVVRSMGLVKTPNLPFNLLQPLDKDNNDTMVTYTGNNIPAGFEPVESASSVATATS

| SMILES | IC50 [1] [ng/mL] | minimal effective concentration (Aspergillus fumigatus [2]) [µg/mL] | IC50 [3] [ng/mL] | IC50 (Fksp) [nM] | minimal effective concentration (Aspergillus fumigatus [4]) [µg/mL] | minimal effective concentration (Aspergillus fumigatus [5]) [µg/mL] | Ratio IC50 (Aspergillus fumigatus [6]) |
| --- | --- | --- | --- | --- | --- | --- | --- |
| CCCCCOc1ccc(-c2ccc(-c3ccc(C(=O)N[C@H]4C[C@@H](O)[C@@H](O)NC(=O)[C@@H]5[C@@H](O)[C@@H](C)CN5C(=O)[C@H]([C@@H](C)O)NC(=O)[C@H]([C@H](O)[C@@H](O)c5ccc(O)cc5)NC(=O)[C@@H]5C[C@@H](O)CN5C(=O)[C@H]([C@@H](C)O)NC4=O)cc3)cc2)cc1 [ANIDULAFUNGIN] ({pTerphenylCO(4''-OnC5H11)}-[Orn(4R-OH,5R-OH)]T[Hyp][hTyr(3S-OH,4S-OH)]T[Pro(3S-OH,4S-Me)]; lactam 1-C) | 0.37 (≈ 0.324 nM) | 8 | 0.24 (≈ 0.21 nM) | 25.6 | 16 | 0.015 | 122 |
| CC[C@H](C)C[C@H](C)CCCCCCCCC(=O)N[C@H]1C[C@@H](O)[C@@H](NCCN)NC(=O)[C@@H]2[C@@H](O)CCN2C(=O)[C@H]([C@H](O)CCN)NC(=O)[C@H]([C@H](O)[C@@H](O)c2ccc(O)cc2)NC(=O)[C@@H]2C[C@@H](O)CN2C(=O)[C@H]([C@@H](C)O)NC1=O [CASPOFUNGIN] | 0.12 (≈ 0.11 nM) | > 16 | 0.91 (≈ 0.832 nM) | 100 | > 16 | 0.25 | 121 |
| CCCCCOc1ccc(-c2cc(-c3ccc(C(=O)N[C@H]4C[C@@H](O)[C@@H](O)NC(=O)[C@@H]5[C@@H](O)[C@@H](C)CN5C(=O)[C@H]([C@H](O)CC(N)=O)NC(=O)[C@H]([C@H](O)[C@@H](O)c5ccc(O)c(OS(=O)(=O)O)c5)NC(=O)[C@@H]5C[C@@H](O)CN5C(=O)[C@H]([C@@H](C)O)NC4=O)cc3)no2)cc1 [MICAFUNGIN] (X1-[Orn(4R-OH,5R-OH)]T[Hyp][hTyr(3S-OH,4S-OH,3'-OSO3H)][Gln(3R-OH)][Pro(3S-OH,4S-Me)]; lactam 1-C) | 0.5 (≈ 0.394 nM) | 8 | 0.63 (≈ 0.496 nM) | 9.93 | > 16 | 0.015 | 20 |

Source: ChEMBL document CHEMBL1138536, “A Ser678Pro substitution in Fks1p confers resistance to echinocandin drugs in Aspergillus fumigatus” (Antimicrob Agents Chemother, 2007)
